Reference: patent publication US20200190073A1, “SUBSTITUTED SUCCINIMIDE DERIVATIVES AS PESTICIDES” (BASF SE, priority 2017, published 2020)

Experiments:
Assay type in all cases: in vivo
[1] = test system: Diamond back moth (Plutella xylostella); test: B.1 Diamond back moth, cabbage leaf dip; conditions: foliar, 72 h, read-out: mortality in comparison with untreated controls
Protocol: B.1 Diamond back moth (Plutella xylostella)
The active compound was dissolved at the desired concentration in a mixture of 1:1 (vol:vol) distilled water:acetone. Surfactant (Kinetic HV) was added at a rate of 0.01% (vol/vol). The test solution was prepared at the day of use.
Leaves of cabbage were dipped in test solution and air-dried. Treated leaves were placed in petri dishes lined with moist filter paper and inoculated with ten 3rd instar larvae. Mortality was recorded 72 hours after treatment. Feeding damages were also recorded using a scale of 0-100%.

[2] = test system: Green Peach Aphid (Myzus persicae); test: B.2 Green peach aphid, artificial diet, systemic; conditions: 72 h, read-out: mortality in comparison with untreated controls
Source text: B.2 Green Peach Aphid (Myzus persicae)
For evaluating control of green peach aphid (Myzus persicae) through systemic means the test unit consisted of 96-well-microtiter plates containing liquid artificial diet under an artificial mem brane.
The compounds were formulated using a solution containing 75% v/v water and 25% v/v DMSO. Different concentrations of formulated compounds were pipetted into the aphid diet, using a custom built pipetter, at two replications.
After application, 5-8 adult aphids were placed on the artificial membrane inside the microtiter plate wells. The aphids were then allowed to suck on the treated aphid diet and incubated at about 23±1° C. and about 50±5% relative humidity for 3 days. Aphid mortality and fecundity was then visually assessed.

[3] = test system: Tobacco Budworm (Heliothis virescens); test: B.4 Tobacco budworm, insect diet with eggs; conditions: 120 h, read-out: mortality in comparison with untreated controls
Protocol: B.4 Tobacco Budworm (Heliothis virescens)
For evaluating control of tobacco budworm (Heliothis virescens) the test unit consisted of 96-well-microtiter plates containing an insect diet and 15-25 H. virescens eggs.
The compounds were formulated using a solution containing 75% v/v water and 25% v/v DMSO. Different concentrations of formulated compounds were sprayed onto the insect diet at 10 μl, using a custom built micro atomizer, at two replications.
After application, microtiter plates were incubated at about 28±1° C. and about 80±5% relative humidity for 5 days. Egg and larval mortality was then visually assessed.

[4] = test system: Boll Weevil (Anthonomus grandis); test: B.5 Boll weevil, insect diet with eggs; conditions: 120 h, read-out: mortality in comparison with untreated controls
Protocol: B.5 Boll Weevil (Anthonomus grandis)
For evaluating control of boll weevil (Anthonomus grandis) the test unit consisted of 96-well-microtiter plates containing an insect diet and 5-10 A. grandis eggs.
The compounds were formulated using a solution containing 75% v/v water and 25% v/v DMSO. Different concentrations of formulated compounds were sprayed onto the insect diet at 5 μl, using a custom built micro atomizer, at two replications.
After application, microtiter plates were incubated at about 25±1° C. and about 75±5% relative humidity for 5 days. Egg and larval mortality was then visually assessed.

[5] = test system: Orchid Thrips (Dichromothrips Corbetti); test: B.7 Orchid thrips, floral immersion; conditions: Thrips, 72 h, read-out: mortality in comparison with untreated controls
Protocol: B.7 Orchid Thrips (Dichromothrips Corbetti)
Dichromothrips corbetti adults used for bioassay were obtained from a colony maintained continuously under laboratory conditions. For testing purposes, the test compound is diluted in a 1:1 mixture of acetone:water (vol:vol), plus Kinetic HV at a rate of 0.01% v/v.
Thrips potency of each compound was evaluated by using a floral-immersion technique. All petals of individual, intact orchid flowers were dipped into treatment solution and allowed to dry in Petri dishes. Treated petals were placed into individual re-sealable plastic along with about 20 adult thrips. All test arenas were held under continuous light and a temperature of about 28° C. for duration of the assay. After 3 days, the numbers of live thrips were counted on each petal. The percent mortality was recorded 72 hours after treatment.

[6] = test system: Vetch Aphid (Megoura viciae); test: B.3 Vetch aphid, broad bean leaf disks; conditions: foliar, 120 h, read-out: mortality in comparison with untreated controls
Protocol: B.3 Vetch Aphid (Megoura viciae)
For evaluating control of vetch aphid (Megoura viciae) through contact or systemic means the test unit consisted of 24-well-microtiter plates containing broad bean leaf disks.
The compounds were formulated using a solution containing 75% v/v water and 25% v/v DMSO. Different concentrations of formulated compounds were sprayed onto the leaf disks at 2.5 μl, using a custom built micro atomizer, at two replications.
After application, the leaf disks were air-dried and 5-8 adult aphids placed on the leaf disks inside the microtiter plate wells. The aphids were then allowed to suck on the treated leaf disks and incubated at about 23±1° C. and about 50±5% relative humidity for 5 days. Aphid mortality and fecundity was then visually assessed.

[7] = test system: Rice Green Leafhopper (Nephotettix virescens); test: B.8 Rice green leafhopper, sprayed rice seedlings; conditions: 72 h, read-out: mortality in comparison with untreated controls
Protocol: B.8 Rice Green Leafhopper (Nephotettix virescens)
(§1) Rice seedlings were cleaned and washed 24 hours before spraying. The active compounds were formulated in 1:1 acetone:water (vol:vol), and 0.01% vol/vol surfactant (Kinetic HV) was added. Potted rice seedlings were sprayed with 5-6 ml test solution, air dried, covered with Mylar cages and inoculated with 10 adults. Treated rice plants were kept at about 28-29° C. and relative humidity of about 50-60%. Percent mortality was recorded after 72 hours.

[8] = test system: Red Spider Mite (Tetranychus kanzawai); test: B.9 Red spider mite, sprayed cowpea beans; conditions: 72 h, read-out: mortality in comparison with untreated controls
Protocol: B.9 Red Spider Mite (Tetranychus kanzawai)
The active compound was dissolved at the desired concentration in a mixture of 1:1 (vol:vol) distilled water:acetone. Add surfactant (Kinetic HV) was added at a rate of 0.01% (vol/vol).The test solution was prepared at the day of use.
Potted cowpea beans of 4-5 days of age were cleaned with tap water and sprayed with 1-2 ml of the test solution using air driven hand atomizer. The treated plants were allowed to air dry and afterwards inoculated with 30 or more mites by clipping a cassava leaf section from rearing population. Treated plants were placed inside a holding room at about 25-27° C. and about 50-60% relative humidity. Percent mortality was assessed 72 hours after treatment.

[9] = test system: Green Soldier Stink Bug (Nezara viridula); test: B.11 Green soldier stink bug, sprayed soybean pods; conditions: 120 h, read-out: mortality in comparison with untreated controls
Protocol: B.11 Green Soldier Stink Bug (Nezara viridula)
The active compound was dissolved at the desired concentration in a mixture of 1:1 (vol:vol) distilled water:acetone. Surfactant (Kinetic HV) was added at a rate of 0.01% (vol/vol). The test solution was prepared at the day of use. Soybean pods were placed in glass Petri dishes lined with moist filter paper and inoculated with ten late 3rd instar N. viridula. Using a hand atomizer, approximately 2 ml solution is sprayed into each Petri dish. Assay arenas were kept at about 25° C. Percent mortality was recorded after 5 days.

[10] = test system: Orchid Thrips (Dichromothrips Corbetti); test: CE.3 Orchid thrips, comparative test; conditions: 96 h, read-out: % mortality in comparison to untreated controls
Protocol: (§2) The tables show % mortality in comparison to untreated controls.
CE.3 Orchid Thrips (Dichromothrips Corbetti)
Dichromothrips corbetti adults used for bioassay were obtained from a colony maintained continuously under laboratory conditions. For testing purposes, the test compound was diluted to a concentration of 300 ppm (wt compound: vol diluent) in a 1:1 mixture of acetone:water (vol:vol), plus 0.01% vol/vol Kinetic® surfactant.
Thrips potency of each compound was evaluated by using a floral-immersion technique. Plastic petri dishes were used as test arenas. All petals of individual, intact orchid flowers were dipped into treatment solution and allowed to dry. Treated flowers were placed into individual petri dishes along with 10-15 adult thrips. The petri dishes were then covered with lids. All test arenas were held under continuous light and a temperature of about 280C for duration of the assay. After 4 days, the numbers of live thrips were counted on each flower, and along inner walls of each petri dish. The level of thrips mortality was extrapolated from pre-treatment thrips numbers.

[11] = test system: Rice Green Leafhopper (Nephotettix virescens); test: CE.5 Rice green leafhopper, comparative test; conditions: 72 h, read-out: % mortality in comparison to untreated controls
Protocol: as §2
CE.5 Rice Green Leafhopper (Nephotettix virescens)
as §1, with “50:50” for “1:1”, “0.1%” for “0.01%”, “(EL 620)” for “(Kinetic HV)”, “5” for “5-6”, “placed in” for “covered with Mylar”

SMILES | mortality at 300 ppm [1] | mortality at 2500 ppm [2] | mortality at 2500 ppm [3] | mortality at 2500 ppm [4] | mortality at 300 ppm [5] | mortality at 2500 ppm [6] | mortality at 300 ppm [7] | mortality at 300 ppm [8] | mortality at 300 ppm [9] | mortality at 10 ppm [10] | mortality at 3 ppm [11]
O=C(N[C@@H]1CC(=O)N(O)C1=O)c1ccc(C2=NOC(c3cc(Cl)c(F)c(Cl)c3)(C(F)(F)F)C2)cc1Cl (stereo partly drawn) [Compound I-1-33, 2-Chloro-4-[5-(3,5-dichloro-4-fluoro-phenyl)-5-(trifluoromethyl)-4H-isoxazol-3-yl]-N-[(3R)-1-hydroxy-2,5-dioxo-pyrrolidin-3-yl]benzamide] | > 75% | > 75% | > 75% | > 75% | > 75% | – | – | – | – | – | –
CCN1C(=O)C[C@@H](NC(=O)c2ccc(C3=NOC(c4cc(Cl)c(F)c(Cl)c4)(C(F)(F)F)C3)cc2C)C1=O (some centres unmarked) [Compound I-1-50] | > 75% | > 75% | > 75% | > 75% | > 75% | > 75% | > 75% | > 75% | > 75% | 100% | –
CNN1C(=O)C[C@@H](NC(=O)c2ccc(C3=NOC(c4cc(Cl)cc(Cl)c4)(C(F)(F)F)C3)cc2C)C1=O (stereo partly drawn) [Compound I-1-45, 4-[5-(3,5-Dichlorophenyl)-5-(trifluoromethyl)-4H-isoxazol-3-yl]-2-methyl-N-[(3R)-1-(methylamino)-2,5-dioxo-pyrrolidin-3-yl]benzamide] | > 75% | > 75% | > 75% | > 75% | > 75% | > 75% | – | > 75% | > 75% | – | –
CON1C(=O)C[C@@H](NC(=O)c2ccc(C3=NOC(c4cc(Cl)cc(Cl)c4)(C(F)(F)F)C3)cc2C)C1=O (stereo partly drawn) [Compound I-1-55, 4-[5-(3,5-Dichlorophenyl)-5-(trifluoromethyl)-4H-isoxazol-3-yl]-N-[(3R)-1-methoxy-2,5-dioxo-pyrrolidin-3-yl]-2-methyl-benzamide] | > 75% | > 75% | > 75% | > 75% | > 75% | > 75% | > 75% | > 75% | > 75% | – | –
Cc1cc(C2=NOC(c3cc(Cl)c(F)c(Cl)c3)(C(F)(F)F)C2)ccc1C(=O)N[C@@H]1CC(=O)N(CC(F)(F)F)C1=O (some centres unmarked) [Compound I-1-57] | > 75% | > 75% | > 75% | > 75% | > 75% | > 75% | > 75% | > 75% | – | 100% | –
O=C(N[C@@H]1CC(=O)N(CC(F)(F)F)C1=O)c1ccc(C2=NOC(c3cc(Cl)c(F)c(Cl)c3)(C(F)(F)F)C2)cc1Cl (some centres unmarked) [Compound I-1-59] | > 75% | > 75% | > 75% | > 75% | > 75% | > 75% | > 75% | > 75% | > 75% | 100% | –
CCN1C(=O)C[C@@H](NC(=O)c2ccc(C3=NOC(c4cc(Cl)cc(Cl)c4)(C(F)(F)F)C3)cc2C)C1=O (some centres unmarked) [Compound I-1-51] | > 75% | > 75% | > 75% | > 75% | > 75% | > 75% | > 75% | > 75% | > 75% | 100% | 90%
